Assay results taken from patent US10188617B2, “Modulation of cellular DNA repair activity to intercept malignancy” (THE BOARD OF TRUSTEES OF THE LELAND STANFORD JUNIOR …, priority 2013, dated 2019).
pEC50: −log10 of the molar value.

Experiments:
[1] = system: BER of ODD in BT474 cells (wild-type BRCA1); assay: DNA repair assay (oxidatively damaged GFP reporter gene), follow-up; format: cell-based, human; settings: 20 μM, BT474, vs vehicle
Method: (§1) Human breast cancer cell lines that were deficient in BER (HCC1143, MDAMB468, HCC1937, and SUM149) or proficient in BER (BT474 and MCF7) were cultured according to American Type Culture Collection guidelines, with the exception of SUM149, which was cultured according to Asterand plc guidelines. Brca1^+/+ and Brca1^-/- mouse mammary epithelial […] previously described. Cells were treated with DMSO (vehicle control) or acetohexamide or benserazide as indicated for 24 hours at 37° C. and 5% CO2. The DNA repair assay was carried out as described in the examples below. Where indicated, BER (base excision mode of DNA repair) activity was expressed relative to the control (DMSO).

[2] = system: BER of ODD in HCC1937 cells (mutant BRCA1); assay: as above; format: cell-based, human; settings: 20 μM, HCC1937, vs vehicle
Method: as §1

[3] = system: BER of ODD in MCF7 cells (wild-type BRCA1, BER-proficient); assay: as above; format: cell-based, human; settings: 20 μM, MCF7, vs vehicle
Method: as §1

[4] = system: BER of ODD in SUM149 cells (mutant BRCA1, BER-defective); assay: as above; format: cell-based, human; settings: for BER: 20 μM, SUM149, vs vehicle; for repair of oxidatively damaged GFP reporter gene, dose-response: SUM149PT cells, 24 hours treatment
Method: as §1

[5] = system: 8oxoG lesions in breast cancer cell lines with defective BER; assay: 8oxoG lesions (OxyFlow Kit); format: cell-based, human; settings: time-dependent
Method: Cells were analyzed using the OxyFlow™ Kit (Hemogenix) according to the manufacturer's instructions.

[6] = system: H2O2-induced ODD in breast cancer cell lines with defective BER; assay: Alkaline comet assay modified for detection of oxidative lesions (FPG); format: cell-based, human; settings: pretreatment, compared to undamaged control
Method: (§2) Cells were collected and embedded into CometAssay® LM Agarose (Trevigen) and placed on CometAssay® HT Slides (Trevigen) in duplicate. Cells were lysed at 4° C. in Lysis Buffer (Trevigen) for >24 hours. Slides were treated with or without FPG enzyme at 37° C. and 5% CO2 for 45 minutes to nick DNA at sites of ODD and then subjected to alkaline treatment at 4° C. for 40 minutes to denature DNA. Slides underwent electrophoresis under alkaline conditions to separate intact from damaged DNA. Following neutralization, DNA was stained using SYBR® green I and visualized as a comet in shape by fluorescent microscopy under 20× objective. […] CometScore software was used to quantify % DNA in Tail. Strand breaks were determined by % DNA in Tail in FPG-minus samples. ODD was determined by subtracting % DNA in Tail in FPG-minus samples from % DNA in Tail in FPG-plus samples.

[7] = system: BER-defective and BER-proficient cells; assay: Alkaline comet assay, strand breaks; format: cell-based; settings: compared to the vehicle control; H2O2 positive control
Method: as §2

SUM149PT cells = assay: Hoechst live-cell staining (cell number); format: cell-based, human; settings: concentrations up to 40 μM
Method: (§3) Cells were treated with acetohexamide for 48 hours in quadruplicate and then incubated with 2 μg/ml Hoechst 33358 live-cell dye for 20 minutes. Four representative fields for each replicate were imaged by the ImageXpress 5000A high-content imager (Molecular Devices). Nuclei were counted using MetaMorph® software (Molecular Devices) and expressed as a percentage relative to the vehicle control (DMSO).

[8] = system: other BER-defective breast cancer cell lines; assay: Hoechst live-cell staining (cell number); format: cell-based, human; settings: 20 μM
Method: as §3

[9] = system: SUM149PT and other cell lines; assay: MTT assay (cell viability); format: cell-based, human; settings: concentrations up to 1 mM, 72 hours
[10] = system: BER of ODD in SUM149PT cells; assay: High-throughput chemical screen with cell-based DNA repair assay (oxidatively damaged GFP reporter, host-cell reactivation);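 also: SUM149PT cells pretreated 24 h with compound, then given photodynamically oxidized adenoviral GFP reporter, 24 h host-cell reactivation, GFP read as repair, undamaged reporter positive and damaged reporter negative control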
[11] = system: BRCA1-mutant/deficient cells; assay: Soft agar colony formation assay (in vitro tumorigenesis); format: cell-based, human; settings: 20 μM benserazide vs 1 μM tamoxifen and vehicle
Method: BRCA1 wild-type (MCF7) and mutant (HCC1937) cells (FIG. 14A) as well as MCF7 cells stably transduced with shRNA to BRCA1 or non-targeting control (FIG. 14B) were treated with vehicle control, 20 μM benserazide, or 1 μM tamoxifen and subjected to the soft agar colony formation assay, i.e. the standard assay for in vitro tumorigenesis. Colony formation represents tumorigenic potential. Tamoxifen is the current FDA-approved chemoprevention agent for breast cancer and a therapeutically-equivalent dose was used for comparison.

[12] = system: BRCA1 wild-type (MCF7) and mutant (HCC1937) cells; assay: Trypan blue exclusion assay (cell viability); format: cell-based, human; settings: treated simultaneously with the colony formation assay
Text: In FIG. 14C, BRCA1 wild-type (MCF7) and mutant (HCC1937) cells were simultaneously treated and then analyzed for cell viability by the trypan blue exclusion assay.

HCC1937 cells = assay: Mouse xenograft model of in vivo tumorigenesis (chemoprevention)
Method: For in vivo tumorigenesis, we utilized a mouse xenograft model that began treatment with the DNA repair-activating agent 24 hours prior to inoculation of HCC1937 cells into the mammary fat pad. Treatment with vehicle control, 50 mg/kg benserazide, or 250 mg/kg benserazide continued daily for up to 60 days while monitoring for tumor formation by palpitation. After the 60 days (i.e. study endpoint), serum was collected for analysis of 8oxodG levels, tumors (if present) were excised and weighed, and anatomy was analyzed for metastasis.

[13] = study endpoint 60 days, dose response

For `CC(=O)c1ccc(S(=O)(=O)NC(=O)NC2CCCCC2)cc1` [Acetohexamide], the BER [1] was “no effect on BER”, the BER [2] was “statistically significant increase in BER” and the BER [3] was “no effect on BER”. For the same compound, the BER [4] was “statistically significant increase in BER”, the “repair of oxidatively damaged GFP reporter gene, dose-response” value [4] was “dose-response increase in repair of an oxidatively damaged GFP reporter gene” and the “relative BER activity” value ([4]; relative to the control (DMSO)) was 1.68±0.13. For the same compound, the “basal levels of 8oxoG lesions” value [5] was “decreased basal levels of 8oxoG lesions”, the “H2O2-induced ODD” value [6] was “decreased H2O2-induced ODD to levels similar to those of the undamaged control” and the DNA strand breaks [7] was “did not significantly induce DNA strand breaks”. For the same compound, the “number of cells (Hoechst 33342 staining)” value (SUM149PT cells) was “did not affect the number of SUM149PT cells”, the “cell number (Hoechst 33342 staining)” value [8] was “nor did it affect the cell number” and the “cell viability (MTT)” value [9] was “did not affect the cell viability”. The pEC50 ([10]; read-out: EC50 (image analysis), dose-response increase in GFP expression by imaging, 20 μM to 0.3 μM two-fold dilutions) was 4.37, the Hoechst-positive cells ([10]; screening data by imaging, compared to negative control) was 87.8% and the “Priority score (summed priority score)” value ([10]; sum of assigned priority scores, range 1-10, 10 = highest priority) was 7.
`NC(CO)C(=O)NNCc1ccc(O)c(O)c1O` (stereo not shown) [benserazide, 2-amino-3-hydroxy-N′-[(2,3,4-trihydroxyphenyl)methyl]propanehydrazide] was tested, and the BER [1] was “no effect on BER”, the BER [2] was “statistically significant increase in BER” and the BER [3] was “no effect on BER”. The BER [4] was “statistically significant increase in BER”, the “repair of oxidatively damaged GFP reporter gene, dose-response” value [4] was “dose-response increase in repair of an oxidatively-damaged GFP reporter gene” and the “in vitro tumorigenic potential (colony formation)” value [11] was “prevented in vitro tumorigenesis”. The “in vitro tumorigenic potential (colony formation)” value ([11]; listed as Benserazide) was “superior to tamoxifen at reducing in vitro tumorigenic potential”, the “cell viability (trypan blue exclusion)” value [12] was “not due to a decrease in cell viability” and the “tumor formation over time” value (HCC1937 cells; 50 or 250 mg/kg daily up to 60 days) was “delayed tumor formation over time”. The “percentage of tumor-free mice” value (HCC1937 cells; 50 or 250 mg/kg daily up to 60 days, started 24 hours prior to inoculation) was “increased the percentage of tumor-free mice in a dose-response manner”, the metastasis (HCC1937 cells; both concentrations (50 and 250 mg/kg), unlike vehicle control) was “prevented metastasis” and the “serum levels of 8oxodG” value (HCC1937 cells; [13]) was “increase serum levels of 8oxodG”. For the same compound, the tumor weights (HCC1937 cells; [13]) was “decrease tumor weights”.
